The values that follow are results of earlier work, collected in US5945105A, “Peptides of the antigen Sm-D and their use, in particular for the diagnostics of systemic lupus erythematosus (SLE)” (Imtec Immundiagnostika GmbH, priority 1995, dated 1999).

This data set concerns anti-SmD antibody-positive sera / SLE sera. The following applies: cited from earlier work; for anti-SmD antibody-positive sera that reacted with the peptide: 18 anti-SmD antibody-positive sera (immuno blotting); for positive reactions in the ELISA, SLE sera: 165 SLE sera. (In general: An ELISA detects its analyte on a solid surface through an enzyme-linked reagent.)

Regarding “44-67: second region of the SmD protein, amino acids 44 through 67 (Barakat et al.) (KMTLKNREPVQLETLSIRGNNIRY; UniProt P62314 44-67, looked up, fragment) [Peptide 44-67]”, the “anti-SmD antibody-positive sera that reacted with the peptide” value is 89% and the “positive reactions in the ELISA, SLE sera” value (“positive reactions” below) is listed as 37%.

Turning to “97-119: third region of the SmD protein, amino acids 97 through 119 (Barakat et al.) (GRGRGRGRGRGRGRGRGRGGPRR; UniProt P62314 97-119, looked up, fragment) [Peptide 97-119]”, the “anti-SmD antibody-positive sera that reacted with the peptide” value is 33% and the “positive reactions” value is given as 1%.

For the substance “1-20: first region of the SmD protein, amino acids 1 through 20 (Barakat et al.) (MKLVRFLMKLSHETVTIELK; UniProt P62314 1-20, looked up, fragment) [Peptide 1-20]”, the “anti-SmD antibody-positive sera that reacted with the peptide” value was 67% and the “positive reactions” value was 59%.
